Measurements published in patent US10973826B2, “Antibody conjugates comprising toll-like receptor agonist” (Novartis AG, priority 2015, dated 2021).

Assay: In vitro stability of conjugates in mouse serum (LC-MS: succinimide ring hydrolysis, deconjugation)
Type: in vitro ADME
Conditions: conjugates of the compound with anti-HER2 mAb2
Method: The stability of the bond formed between maleimide containing payloads and Cys residues of the antibody is enhanced by the hydrolysis of the succinimide ring formed in this reaction. The effects of succinimide ring hydrolysis on the stability of antibody conjugates prepared with agonist compounds of the invention were studied after in vitro incubation in mouse serum. Mass changes resulting from payload deconjugation and the hydrolysis of the succinimide ring of maleimide payloads conjugated to antibodies were monitored by LC-MS. The hydrolysis of the succinimide ring has been reported to be stimulated by certain conditions such as high pH, high temperature, or high salts (J. Am. Chem. Soc. 1955, 77: 3922; Biochemistry 1976, 15: 2836; Biochem. J. 1979, 179: 191-197; J Pharm Sci. 1984, 73:1767-1771; Bioorg. Med. Chem. Lett. 17: 6286-6289, 2007). To probe the in vitro stability of conjugates, anti-HER2 antibody mAb2 conjugates were incubated at 37° C. in 50-70% mouse serum. […] The light chain, heavy chain Fab, and heavy chain Fc fragments were then analyzed by ESI-MS. The relative populations of deconjugated antibody, conjugates with attached payload with hydrolyzed succinimide ring, and conjugates with attached payload with intact succinimide ring, were calculated from the relative MS intensities of the corresponding conjugate species. […]

| Structure (SMILES) | conjugate stability (deconjugation, succinimide ring hydrolysis) |
| --- | --- |
| CCCCCNc1nc(N)nc2ccn(Cc3ccc(CN4CCN(CCN5C(=O)C=CC5=O)CC4)cc3OC)c12 [Compound C-5, 1-(2-(4-(4-((2-amino-4-(pentylamino)-5H-pyrrolo[3,2-d]pyrimidin-5-yl)methyl)-3-methoxybenzyl)piperazin-1-yl)ethyl)-1H-pyrrole-2,5-dione] | improved conjugate stability |
| CCCCCNc1nc(N)nc2ccn(Cc3ccc(CN4CCN(C(=O)CCOCCOCCNC(=O)CN5C(=O)C=CC5=O)CC4)cc3OC)c12 [Compound C-21, N-(2-(2-(3-(4-(4-((2-amino-4-(pentylamino)-5H-pyrrolo[3,2-d]pyrimidin-5-yl)methyl)-3-methoxybenzyl)piperazin-1-yl)-3-oxopropoxy)ethoxy)ethyl)-2-(2,5-dioxo-2,5-dihydro-1H-pyrrol-1-yl)acetamide] | improved conjugate stability |
